Laboratory results: patent US9255100B2 (BAYER INTELLECTUAL PROPERTY GMBH, priority 2010, dated 2016)
“And” between values parts separate entries of the source, which are not always exact repeats. Equal entries are not always repeated.

Biological target: T1, N-terminally GST-tagged human full length recombinant Mps-1 kinase (Homo sapiens, UniProt P33981)
T1 construct: N-terminally GST-tagged human full length recombinant Mps-1 kinase; purchased Invitrogen, Karslruhe, Germany PV4071
T1 sequence (P33981 1-857): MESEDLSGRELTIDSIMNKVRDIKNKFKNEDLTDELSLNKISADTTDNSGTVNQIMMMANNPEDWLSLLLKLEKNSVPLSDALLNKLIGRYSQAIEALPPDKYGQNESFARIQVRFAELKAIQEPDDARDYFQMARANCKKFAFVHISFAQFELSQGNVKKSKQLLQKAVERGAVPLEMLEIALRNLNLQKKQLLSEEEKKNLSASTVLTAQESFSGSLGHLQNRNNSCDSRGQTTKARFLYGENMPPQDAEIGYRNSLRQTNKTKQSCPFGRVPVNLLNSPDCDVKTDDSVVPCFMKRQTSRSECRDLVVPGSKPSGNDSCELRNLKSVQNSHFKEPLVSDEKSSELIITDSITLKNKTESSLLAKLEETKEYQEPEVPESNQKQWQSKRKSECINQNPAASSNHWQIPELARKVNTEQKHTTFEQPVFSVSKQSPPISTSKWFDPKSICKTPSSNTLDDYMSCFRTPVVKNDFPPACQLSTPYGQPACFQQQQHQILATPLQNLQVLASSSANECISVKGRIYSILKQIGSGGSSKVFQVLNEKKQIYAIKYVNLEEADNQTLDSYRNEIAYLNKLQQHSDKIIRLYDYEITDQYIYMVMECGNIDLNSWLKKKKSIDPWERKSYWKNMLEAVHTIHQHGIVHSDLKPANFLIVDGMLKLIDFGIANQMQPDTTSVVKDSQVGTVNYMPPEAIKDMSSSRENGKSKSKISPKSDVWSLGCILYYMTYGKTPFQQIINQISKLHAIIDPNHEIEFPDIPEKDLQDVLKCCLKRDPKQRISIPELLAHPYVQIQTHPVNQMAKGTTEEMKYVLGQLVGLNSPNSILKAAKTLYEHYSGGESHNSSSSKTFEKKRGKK
Assay: Mps-1 kinase assay (TR-FRET)
Assay type: biochemical
Details: Mps1 IC50 [nM], 10 μM ATP, 1 μM peptide substrate, 60 min at 22° C.
Method in brief: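 GST-Mps-1 (full length, N-term tag) ~1 nM final, linear-range adjusted per lot; biotinylated peptide substrate. Detection: Eu-anti-pSer/Thr donor → SA-XLent acceptor TR-FRET, 1 h, 22° C. Inhibition of kinase activity.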

| IC50 | SMILES |
| --- | --- |
| 0.6 nM | Cc1cc(-c2cnc3c(NCCC(F)(F)F)cc(Oc4cccc(OC(C)C)c4)nn23)ccc1C(=O)NC1CC1 [Example 381, N-cyclopropyl-2-methyl-4-{6-[3-(propan-2-yloxy)phenoxy]-8-[(3,3,3-trifluoropropyl)amino]imidazo[1,2-b]pyridazin-3-yl}benzamide] |
| 1.2 nM | Cc1cc(Nc2cc(NCC(C)(C)O)c3ncc(-c4ccc(C(=O)NC5CC5)c(C)c4)n3n2)ccc1F [Example 382, N-cyclopropyl-4-{6-[(4-fluoro-3-methylphenyl)amino]-8-[(2-hydroxy-2-methylpropyl)amino]imidazo[1,2-b]pyridazin-3-yl}-2-methylbenzamide] |
| 0.3 nM | Cc1ccc(F)c(Nc2cc(NCC(C)(C)O)c3ncc(-c4ccc(C(=O)NC5CC5)c(C)c4)n3n2)c1 [Example 383, N-cyclopropyl-4-{6-[(2-fluoro-5-methylphenyl)amino]-8-[(2-hydroxy-2-methylpropyl)amino]imidazo[1,2-b]pyridazin-3-yl}-2-methylbenzamide] |
| 0.4 nM | Cc1cc(-c2cnc3c(NCC(C)(C)O)cc(Nc4ccccc4F)nn23)ccc1C(=O)NC1CC1 [Example 384, N-cyclopropyl-4-{6-[(2-fluorophenyl)amino]-8-[(2-hydroxy-2-methylpropyl)amino]imidazo[1,2-b]pyridazin-3-yl}-2-methylbenzamide] |
| 0.9 nM | Cc1cc(-c2cnc3c(NCC(C)(C)O)cc(Nc4cccc(C(C)C)c4)nn23)ccc1C(=O)NC1CC1 [Example 385, N-cyclopropyl-4-{8-[(2-hydroxy-2-methylpropyl)amino]-6-[(3-isopropylphenyl)amino]imidazo[1,2-b]pyridazin-3-yl}-2-methylbenzamide] |
| 1.5 nM | Cc1cc(-c2cnc3c(NCC(C)(C)O)cc(Nc4ccc(CCO)cc4)nn23)ccc1C(=O)NC1CC1 [Example 386, N-cyclopropyl-4-(6-{[4-(2-hydroxyethyl)phenyl]amino}-8-[(2-hydroxy-2-methylpropyl)amino]imidazo[1,2-b]pyridazin-3-yl)-2-methylbenzamide] |
| 0.3 nM | Cc1cc(-c2cnc3c(NCCC(F)(F)F)cc(Sc4cccc(F)c4C)nn23)ccc1C(=O)NC1CC1 [Example 387, N-cyclopropyl-4-{6-[(3-fluoro-2-methylphenyl)sulfanyl]-8-[(3,3,3-trifluoropropyl)amino]imidazo[1,2-b]pyridazin-3-yl}-2-methylbenzamide] |
| 0.4 nM | COc1ccccc1Nc1cc(NCCC(F)(F)F)c2ncc(-c3ccc(C(=O)NC4CC4)c(C)c3)n2n1 [Example 388, N-cyclopropyl-4-{6-[(2-methoxyphenyl)amino]-8-[(3,3,3-trifluoropropyl)amino]imidazo[1,2-b]pyridazin-3-yl}-2-methylbenzamide] |
| 0.1 nM | CNc1ccccc1Oc1cc(NCCC(F)(F)F)c2ncc(-c3ccc(C(=O)NC4CC4)c(C)c3)n2n1 [Example 389, N-cyclopropyl-2-methyl-4-{6-[2-(methylamino)phenoxy]-8-[(3,3,3-trifluoropropyl)amino]imidazo[1,2-b]pyridazin-3-yl}benzamide] |
| 0.4 nM | Cc1cc(-c2cnc3c(NCCC(F)(F)F)cc(Sc4ccc(Cl)cc4CO)nn23)ccc1C(=O)NC1CC1 [Example 392, 4-(6-{[4-chloro-2-(hydroxymethyl)phenyl]sulfanyl}-8-[(3,3,3-trifluoropropyl)amino]imidazo[1,2-b]pyridazin-3-yl)-N-cyclopropyl-2-methylbenzamide] |
| 2.3 nM | Cc1cc(-c2cnc3c(NCC(C)(C)O)cc(Sc4ccc(Cl)cc4CO)nn23)ccc1C(=O)NC1CC1 [Example 393, 4-(6-{[4-chloro-2-(hydroxymethyl)phenyl]sulfanyl}-8-[(2-hydroxy-2-methylpropyl)amino]imidazo[1,2-b]pyridazin-3-yl)-N-cyclopropyl-2-methylbenzamide] |
| 0.2 nM | Cc1cc(F)cc(Nc2cc(NCC(C)(C)O)c3ncc(-c4ccc(C(=O)NC5CC5)c(C)c4)n3n2)c1 [Example 394, N-cyclopropyl-4-{6-[(3-fluoro-5-methylphenyl)amino]-8-[(2-hydroxy-2-methylpropyl)amino]imidazo[1,2-b]pyridazin-3-yl}-2-methylbenzamide] |
| 0.3 nM | Cc1cc(-c2cnc3c(NCCC(F)(F)F)cc(Oc4ccccc4N)nn23)ccc1C(=O)NC1CC1 [Example 395, 4-{6-(2-aminophenoxy)-8-[(3,3,3-trifluoropropyl)amino]imidazo[1,2-b]pyridazin-3-yl}-N-cyclopropyl-2-methylbenzamide] |
| 0.1 nM and 0.3 nM | Cc1cc(-c2cnc3c(NCCC(F)(F)F)cc(Nc4ccc(F)cc4O)nn23)ccc1C(=O)NC1CC1 [Example 396, N-cyclopropyl-4-{6-[(4-fluoro-2-hydroxyphenyl)amino]-8-[(3,3,3-trifluoropropyl)amino]imidazo[1,2-b]pyridazin-3-yl}-2-methylbenzamide] |
| 0.4 nM | COc1cccc(Nc2cc(NCC(C)(C)O)c3ncc(-c4ccc(C(=O)NC5CC5)c(C)c4)n3n2)c1C [Example 398, N-cyclopropyl-4-{8-[(2-hydroxy-2-methylpropyl)amino]-6-[(3-methoxy-2-methylphenyl)amino]imidazo[1,2-b]pyridazin-3-yl}-2-methylbenzamide] |
| 0.1 nM | Cc1cc(-c2cnc3c(NCCC(F)(F)F)cc(Nc4ccccc4O)nn23)ccc1C(=O)NC1CC1 [Example 399, N-cyclopropyl-4-{6-[(2-hydroxyphenyl)amino]-8-[(3,3,3-trifluoropropyl)amino]imidazo[1,2-b]pyridazin-3-yl}-2-methylbenzamide] |
| 3.1 nM | COc1cc(Nc2cc(NCC(C)(C)O)c3ncc(-c4ccc(C(=O)NC5CC5)c(C)c4)n3n2)ccc1F [Example 400, N-cyclopropyl-4-{6-[(4-fluoro-3-methoxyphenyl)amino]-8-[(2-hydroxy-2-methylpropyl)amino]imidazo[1,2-b]pyridazin-3-yl}-2-methylbenzamide] |
| 1 nM | Cc1cc(-c2cnc3c(NCC(C)(C)O)cc(Nc4ccc(Cl)c(F)c4)nn23)ccc1C(=O)NC1CC1 [Example 401, 4-{6-[(4-chloro-3-fluorophenyl)amino]-8-[(2-hydroxy-2-methylpropyl)amino]imidazo[1,2-b]pyridazin-3-yl}-N-cyclopropyl-2-methylbenzamide] |
| 3.4 nM | COc1ccccc1Nc1cc(NCC(C)(C)O)c2ncc(-c3ccc(C(=O)NC4CC4)c(C)c3)n2n1 [Example 402, N-cyclopropyl-4-{8-[(2-hydroxy-2-methylpropyl)amino]-6-[(2-methoxyphenyl)amino]imidazo[1,2-b]pyridazin-3-yl}-2-methylbenzamide] |
| 1 nM | COc1cccc(Nc2cc(NCC(C)(C)O)c3ncc(-c4ccc(C(=O)NC5CC5)c(C)c4)n3n2)c1 [Example 403, N-cyclopropyl-4-{8-[(2-hydroxy-2-methylpropyl)amino]-6-[(3-methoxyphenyl)amino]imidazo[1,2-b]pyridazin-3-yl}-2-methylbenzamide] |
| 0.3 nM | Cc1ccc(Cl)cc1Nc1cc(NCC(C)(C)O)c2ncc(-c3ccc(C(=O)NC4CC4)c(C)c3)n2n1 [Example 404, 4-{6-[(5-chloro-2-methylphenyl)amino]-8-[(2-hydroxy-2-methylpropyl)amino]imidazo[1,2-b]pyridazin-3-yl}-N-cyclopropyl-2-methylbenzamide] |
